Results from ChEMBL document CHEMBL1141634, “Cathepsin B inhibitory activities of phthalates isolated from a marine Pseudomonas strain” (Bioorg Med Chem Lett, 2008).

How the values were obtained:
Cathepsin B [1] = molecular target: Cathepsin B (Homo sapiens, UniProt P07858); test: Inhibition of cathepsin B
Cathepsin B [2] = molecular target: Cathepsin B (Mus musculus, UniProt P10605); test: Inhibition of cathepsin B in mouse B16F10 cells; type: cell-based, B16-F10
B16-F10 = test: Cytotoxicity against mouse B16F10 cells by MTT assay; type: functional

Sequence of Cathepsin B (Mus musculus, UniProt P10605) (P10605 whole entry): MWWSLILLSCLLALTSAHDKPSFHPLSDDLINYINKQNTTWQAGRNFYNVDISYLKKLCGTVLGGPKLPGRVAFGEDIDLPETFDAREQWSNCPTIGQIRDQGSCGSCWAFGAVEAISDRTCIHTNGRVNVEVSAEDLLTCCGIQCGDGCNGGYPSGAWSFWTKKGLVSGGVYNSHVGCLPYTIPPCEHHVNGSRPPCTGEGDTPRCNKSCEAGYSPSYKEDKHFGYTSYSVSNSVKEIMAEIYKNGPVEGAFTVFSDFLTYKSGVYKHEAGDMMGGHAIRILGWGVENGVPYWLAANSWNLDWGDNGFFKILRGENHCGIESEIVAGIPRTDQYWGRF

SMILES | IC50 (Cathepsin B [1]) | IC50 (Cathepsin B [2]) | Activity (B16-F10)
CCCCOC(=O)c1ccccc1C(=O)OCCCC [DIBUTYL PHTHALATE] | 420 µM | 230 µM | 9.45%
CCCC[C@@H](CC)COC(=O)c1ccccc1C(=O)OC[C@@H](CC)CCCC [BIS(2-ETHYLHEXYL)PHTHALATE] | 380 µM | 140 µM | 7.34%
